Laboratory results from article PMC7587356, “High-Throughput Screening for Inhibitors of the SARS-CoV-2 Protease Using a FRET-Biosensor” (Molecules, 2020).
Counter-ions that a name gives are not always drawn. Like-named read-outs stand apart in the source and are kept apart here.

Biological target: SARS-CoV-2 3CLpro (Severe acute respiratory syndrome coronavirus 2, UniProt P0DTD1)
Experiment: biochemical
Format: biochemical
Set-up: Replicate_1 / Replicate_2 / mean / mean (LOPAC_screen_w_protease): unit not given here
Details: for inhibition at 5 µM: 4 h
[1] = LOPAC1280 primary screen with protease, 5 µM compound, replicate 1, read-out: Replicate_1 (LOPAC_screen_w_protease)
[2] = LOPAC1280 primary screen with protease, 5 µM compound, replicate 2, read-out: Replicate_2 (LOPAC_screen_w_protease)
[3] = LOPAC1280 primary screen with protease, 5 µM compound, mean of two replicates
[4] = sheet LOPAC_screen_w_protease, LOPAC1280 at 5 µM, mean of two replicates
[5] = sheet LOPAC_screen_w_protease, LOPAC1280 at 5 µM, replicate 1
[6] = sheet LOPAC_screen_w_protease, LOPAC1280 at 5 µM, replicate 2
[7] = LOPAC1280 primary screen with protease, 5 µM compound, replicate 1
[8] = LOPAC1280 primary screen with protease, 5 µM compound, replicate 2
[9] = sheet LOPAC_screen_w_protease, LOPAC1280 primary screen with protease, 5 µM compound, mean of the two replicates, read-out: mean
[10] = sheet LOPAC_screen_w_protease, LOPAC1280 primary screen with protease, 5 µM compound, replicate 1, read-out: Replicate_1
[11] = sheet LOPAC_screen_w_protease, LOPAC1280 primary screen with protease, 5 µM compound, replicate 2, read-out: Replicate_2
[12] = sheet LOPAC_screen_w_protease, LOPAC1280 primary screen at 5 µM, with protease, replicate 1
[13] = sheet LOPAC_screen_w_protease, LOPAC1280 primary screen at 5 µM, with protease, replicate 2
[14] = sheet LOPAC_screen_w_protease, primary screen with protease, mean of two replicates
[15] = sheet LOPAC_screen_w_protease, primary screen with protease, replicate 1
[16] = sheet LOPAC_screen_w_protease, primary screen with protease, replicate 2
[17] = sheet LOPAC_screen_w_protease, primary screen with protease, compound at 5 µM, mean of two replicates
[18] = sheet LOPAC_screen_w_protease, primary screen with protease, compound at 5 µM, replicate 1
[19] = sheet LOPAC_screen_w_protease, primary screen with protease, compound at 5 µM, replicate 2
[20] = sheet LOPAC_screen_w_protease, primary screen with protease, 5 µM, mean of two replicates, read-out: mean
[21] = sheet LOPAC_screen_w_protease, primary screen with protease, 5 µM, replicate 1, read-out: Replicate_1
[22] = sheet LOPAC_screen_w_protease, primary screen with protease, 5 µM, replicate 2, read-out: Replicate_2
[23] = sheet LOPAC_screen_w_protease, primary screen at 5 µM, mean of two replicates
[24] = sheet LOPAC_screen_w_protease, primary screen at 5 µM, replicate 1
[25] = sheet LOPAC_screen_w_protease, primary screen at 5 µM, replicate 2
[26] = sheet LOPAC_screen_w_protease, LOPAC1280 primary screen at 5 µM, with protease, mean of the two replicates
[27] = sheet LOPAC_screen_w_protease, primary screen of LOPAC1280 at 5 µM with protease, mean of the two replicates, read-out: mean
[28] = sheet LOPAC_screen_w_protease, primary screen of LOPAC1280 at 5 µM with protease, replicate 1, read-out: Replicate_1
[29] = sheet LOPAC_screen_w_protease, primary screen of LOPAC1280 at 5 µM with protease, replicate 2, read-out: Replicate_2
[30] = sheet LOPAC_screen_w_protease, LOPAC1280 primary screen with protease, 5 µM compound, mean of the two replicates
[31] = sheet LOPAC_screen_w_protease, LOPAC1280 primary screen with protease, 5 µM compound, replicate 1
[32] = sheet LOPAC_screen_w_protease, LOPAC1280 primary screen with protease, 5 µM compound, replicate 2

Cc1nc2c([nH]1)c(=O)n(C)c(=O)n2Cc1ccco1 [Furafylline]
inhibition at 5 µM [1]: 3.1% | inhibition at 5 µM [2]: -0.41% | mean (LOPAC_screen_w_protease) [3]: 1.344

CNC(=O)c1cc2c(cn1)[nH]c1ccccc12 [N-Methyl-beta-carboline-3-carboxamide]
mean [4]: 1.084 | Replicate_1 [5]: 1.698 | Replicate_2 [6]: 0.4701

CNCCCC12CCC(c3ccccc31)c1ccccc12 [Maprotiline hydrochloride]
inhibition at 5 µM (read-out: Replicate_1): 4% | inhibition at 5 µM (read-out: Replicate_2): 5.55% | inhibition at 5 µM (read-out: mean): 4.77%

O=C(Cc1ccc(Cl)c(Cl)c1)OCCN1CCCC1.O=C(O)C(=O)O [AC 915 oxalate]
mean [4]: 1.181 | Replicate_1 [5]: 1.4848 | Replicate_2 [6]: 0.8765

COc1ccc2c(c1OC)C(=O)OC2C1c2cc3c(cc2CCN1C)OCO3 (single isomer, unassigned; (+)) [(+)-Hydrastine]
inhibition at 5 µM [1]: 2.51% | inhibition at 5 µM [2]: 0.711% | mean (LOPAC_screen_w_protease) [3]: 1.61

Oc1c2ccccc2c2c3c(cccc13)N=N2 [SP600125]
inhibition at 5 µM (sheet LOPAC_screen_w_protease, LOPAC1280 primary screen at 5 µM, with protease, mean of two replicates, read-out: mean): -1.9% | inhibition at 5 µM (sheet LOPAC_screen_w_protease, LOPAC1280 primary screen at 5 µM, with protease, replicate 1, read-out: Replicate_1): 0.641% | inhibition at 5 µM (sheet LOPAC_screen_w_protease, LOPAC1280 primary screen at 5 µM, with protease, replicate 2, read-out: Replicate_2): -4.45%

Cc1ccc(OCC(O)C(C)NC(C)C)c2c1CCC2.Cl (centres unmarked) [ICI 118,551 hydrochloride]
mean (LOPAC_screen_w_protease) (LOPAC1280 primary screen with protease, 5 µM compound, mean of the two replicates): 1.851 | Replicate_1 (LOPAC_screen_w_protease) [7]: 3.391 | Replicate_2 (LOPAC_screen_w_protease) [8]: 0.3114

CN1C[C@@H](NS(=O)(=O)N(C)C)C[C@@H]2c3cccc4c3c(cn4C)C[C@H]21 [Mesulergine hydrochloride]
inhibition at 5 µM [9]: 5.36% | inhibition at 5 µM [10]: 4.85% | inhibition at 5 µM [11]: 5.86%

S=C([S-])OC1CC2CC1C1CCCC21.[K+] [D-609 potassium]
mean (sheet LOPAC_screen_w_protease, LOPAC1280 primary screen at 5 µM, with protease, mean of two replicates): -1.918 | Replicate_1 [12]: -2.8235 | Replicate_2 [13]: -1.0122

C[N+]1(C)CCc2cc3c(cc2[C@H]1[C@@H]1OC(=O)c2c1ccc1c2OCO1)OCO3.[Br-] [(-)-Bicuculline methbromide, 1(S), 9(R)]
mean [14]: 2.342 | Replicate_1 [15]: 1.484 | Replicate_2 [16]: 3.2

N.N.O=C([O-])C1(C(=O)[O-])CCC1.[Pt+2] [Carboplatin]
mean [17]: 2.889 | Replicate_1 [18]: 1.772 | Replicate_2 [19]: 4.006

C=CCc1ccccc1OCC(O)CNC(C)C (centres unmarked) [Alprenolol hydrochloride]
inhibition at 5 µM [20]: 0.137% | inhibition at 5 µM [21]: 0.164% | inhibition at 5 µM [22]: 0.11%

O=C1c2c(O)cc(O)cc2O[C@H](c2ccc(O)c(O)c2)[C@H]1O (racemic) [(±)-Taxifolin]
mean (LOPAC screen with protease) [23]: 7.529 | Replicate_1 (LOPAC screen with protease) [24]: 9.2588 | Replicate_2 (LOPAC screen with protease) [25]: 5.799

CC(C)(C)c1cc(/C=C(\C#N)C(N)=S)cc(C(C)(C)C)c1O [Tyrphostin AG 879]
inhibition at 5 µM [9]: 5.5% | inhibition at 5 µM [10]: 5.93% | inhibition at 5 µM [11]: 5.07%

CC(C(=O)O)c1ccc(CC2CCCC2=O)cc1 (centres unmarked) [loxoprofen]
inhibition at 5 µM (sheet LOPAC_screen_w_protease, LOPAC1280 at 5 µM, mean of two replicates, read-out: mean): 1.2% | inhibition at 5 µM (sheet LOPAC_screen_w_protease, LOPAC1280 at 5 µM, replicate 1, read-out: Replicate_1): 0.313% | inhibition at 5 µM (sheet LOPAC_screen_w_protease, LOPAC1280 at 5 µM, replicate 2, read-out: Replicate_2): 2.09%

O=C(O)/C=C\C(=O)O.O=[N+]([O-])c1ccc2nc(N3CCNCC3)ccc2c1 [Quipazine, 6-nitro-, maleate]
mean [26]: 0.7082 | Replicate_1 [12]: 1.452 | Replicate_2 [13]: -0.03606

COc1cc(C(=O)OCCCN2CCCN(CCCOC(=O)c3cc(OC)c(OC)c(OC)c3)CC2)cc(OC)c1OC [Dilazep hydrochloride]
inhibition at 5 µM [27]: 3.29% | inhibition at 5 µM [28]: 2.23% | inhibition at 5 µM [29]: 4.35%

CC[N+](CC)(CC)CCOc1ccc(/C=C/c2ccccc2)cc1 [MG 624]
inhibition at 5 µM (sheet LOPAC_screen_w_protease, primary screen at 5 µM, mean of two replicates, read-out: mean (LOPAC screen with protease)): 11.8% | inhibition at 5 µM (sheet LOPAC_screen_w_protease, primary screen at 5 µM, replicate 1, read-out: Replicate_1 (LOPAC screen with protease)): 10.3% | inhibition at 5 µM (sheet LOPAC_screen_w_protease, primary screen at 5 µM, replicate 2, read-out: Replicate_2 (LOPAC screen with protease)): 13.3%

CC(C)(Sc1ccc(CCN(CCCCC2CCCCC2)C(=O)NC2CCCCC2)cc1)C(=O)O [GW7647]
mean (sheet LOPAC_screen_w_protease, primary screen with protease, 5 µM, mean of two replicates): -0.2447 | Replicate_1 (sheet LOPAC_screen_w_protease, primary screen with protease, 5 µM, replicate 1): -0.1471 | Replicate_2 (sheet LOPAC_screen_w_protease, primary screen with protease, 5 µM, replicate 2): -0.3423

Cl.Cl.Cn1cnc(CCN)c1 [1-Methylhistamine dihydrochloride]
mean [30]: 4.368 | Replicate_1 [31]: 3.059 | Replicate_2 [32]: 5.677

Br.Oc1cc2c(c(Cl)c1O)CCNCC2c1ccccc1 (racemic) [(±)-6-Chloro-PB hydrobromide]
mean (LOPAC screen with protease) [23]: 66.2827 | Replicate_1 (LOPAC screen with protease) [24]: 64.3769 | Replicate_2 (LOPAC screen with protease) [25]: 68.1884

Cl.OC1CCCCC1N1CCC(c2ccccc2)CC1 (racemic) [(±)-Vesamicol hydrochloride]
mean [26]: 0.573 | Replicate_1 [12]: 1.205 | Replicate_2 [13]: -0.05902

(-)-3-Methoxynaltrexone hydrochloride
mean [30]: 5.384 | Replicate_1 [31]: 4.034 | Replicate_2 [32]: 6.735

C=CC[N+](C)(C)c1ccc(CCC(=O)CCc2ccc([N+](C)(C)CC=C)cc2)cc1.[Br-].[Br-] [BW 284c51]
Replicate_1: 2.051 | Replicate_2: 3.598 | mean: 2.825

Nc1c[n+](N2CCOCC2)no1.[Cl-] [3-Morpholinosydnonimine hydrochloride]
mean (LOPAC screen with protease) [23]: 21.789 | Replicate_1 (LOPAC screen with protease) [24]: 21.9907 | Replicate_2 (LOPAC screen with protease) [25]: 21.5874

Ceramide
mean [17]: 2.999 | Replicate_1 [18]: 2.718 | Replicate_2 [19]: 3.28

CC(=O)Nc1nnc(S(N)(=O)=O)s1 [Acetazolamide]
inhibition at 5 µM [21]: 0.216% | inhibition at 5 µM [22]: -0.714%

CNC(=O)Oc1ccc2c(c1)[C@]1(C)CCN(C)[C@@H]1N2C [(-)-Physostigmine]
inhibition at 5 µM [27]: 3.4% | inhibition at 5 µM [28]: 5.4% | inhibition at 5 µM [29]: 1.4%

Cc1ccc(S(=O)(=O)N[C@@H](Cc2ccccc2)C(=O)CCl)cc1
mean (LOPAC screen with protease) [23]: 61.4515 | Replicate_1 (LOPAC screen with protease) [24]: 61.5523 | Replicate_2 (LOPAC screen with protease) [25]: 61.3507

COc1ccc(CCN(C)CCc2ccc(OC)c(OC)c2)cc1OC.Cl [YS-035 hydrochloride]
mean [26]: 0.8264 | Replicate_1 [12]: 0.7595 | Replicate_2 [13]: 0.8934

CCCNC(C)C(=O)Nc1ccccc1C (centres unmarked) [Prilocaine hydrochloride]
inhibition at 5 µM [20]: 0.116% | inhibition at 5 µM [21]: 0.518% | inhibition at 5 µM [22]: -0.285%

COC(=O)N1CCN(C(=O)Cc2ccc(Cl)c(Cl)c2)C(CN2CCCC2)C1.O=C(O)/C=C/C(=O)O (centres unmarked) [GR-89696 fumarate]
mean [14]: 2.523 | Replicate_1 [15]: 2.9956 | Replicate_2 [16]: 2.05

C[C@@H]1C(=O)NC2=Nc3cccc(Cl)c3CN21 [Quazinone]
inhibition at 5 µM [9]: 4.1% | inhibition at 5 µM [10]: 4.2% | inhibition at 5 µM [11]: 4%

CC(C)Cc1ccc([C@H](C)C(=O)O)cc1 [S(+)-Ibuprofen]
mean (LOPAC_screen_w_protease) [3]: 1.7003 | Replicate_1 (LOPAC_screen_w_protease) [7]: 1.122 | Replicate_2 (LOPAC_screen_w_protease) [8]: 2.279

COc1cc(NS(C)(=O)=O)ccc1Nc1c2ccccc2nc2ccccc12 [Amsacrine hydrochloride]
inhibition at 5 µM [9]: 4.23% | inhibition at 5 µM [10]: 4.22% | inhibition at 5 µM [11]: 4.24%
